Laboratory results from the NIST ThermoML archive (doi:10.1016/j.jct.2018.04.018).

Test: molar heat capacity at constant pressure
Settings: 101.33 kPa, Liquid, DSC

CCCCCCCC[n+]1ccn(C)c1.F[P-](F)(F)(F)(F)F [1-octyl-3-methylimidazolium hexafluorophosphate]
Settings | molar heat capacity at constant pressure [J/K/mol]
253.15 K | 549.23
258.15 K | 551.95
263.15 K | 554.33
268.15 K | 556.71
273.15 K | 559.77
278.15 K | 562.84
283.15 K | 566.92
288.15 K | 570.32
293.15 K | 573.73
298.15 K | 577.47
303.15 K | 580.53
308.15 K | 584.28
313.15 K | 587.34
318.15 K | 590.4
323.15 K | 593.46
328.15 K | 597.21
333.15 K | 600.27
338.15 K | 602.99
343.15 K | 606.05
348.15 K | 608.78
353.15 K | 611.84
358.15 K | 614.22
363.15 K | 617.28
368.15 K | 620.01
373.15 K | 622.39
378.15 K | 625.45
383.15 K | 628.17
388.15 K | 630.55
393.15 K | 633.28
398.15 K | 636.68
403.15 K | 639.74
408.15 K | 643.83
413.15 K | 646.89
